Data reported in ChEMBL document CHEMBL4004803, “Syntheses and antibacterial activity of soluble 9-bromo substituted indolizinoquinoline-5,12-dione derivatives” (Eur J Med Chem, 2017).
Converted amounts (≈) assume the structure as drawn.

What was measured:
Type in all cases: functional
Staphylococcus aureus [1] = experiment: Antibacterial activity against methicillin-resistant Staphylococcus aureus 221014 clinical isolate after 20 to 24 hrs by two-fold microdilution method
[2] = test system: Staphylococcus epidermidis; experiment: Antibacterial activity against Staphylococcus epidermidis ATCC 12228 after 20 to 24 hrs by two-fold microdilution method
Staphylococcus aureus [3] = experiment: Antibacterial activity against methicillin-resistant Staphylococcus aureus 1108204 clinical isolate after 20 to 24 hrs by two-fold microdilution method
Staphylococcus aureus [4] = experiment: Antibacterial activity against methicillin-resistant Staphylococcus aureus 122710-2 clinical isolate after 20 to 24 hrs by two-fold microdilution method
Staphylococcus aureus [5] = experiment: Antibacterial activity against methicillin-resistant Staphylococcus aureus 1215028 clinical isolate after 20 to 24 hrs by two-fold microdilution method
Enterococcus faecalis = experiment: Antibacterial activity against Enterococcus faecalis ATCC 29212 after 20 to 24 hrs by two-fold microdilution method
Staphylococcus aureus [6] = experiment: Antibacterial activity against methicillin-resistant Staphylococcus aureus 109244 clinical isolate after 20 to 24 hrs by two-fold microdilution method
Staphylococcus aureus [7] = experiment: Antibacterial activity against methicillin-resistant Staphylococcus aureus 531026 clinical isolate after 20 to 24 hrs by two-fold microdilution method
Staphylococcus aureus [8] = experiment: Antibacterial activity against methicillin-resistant Staphylococcus aureus 112106 clinical isolate after 20 to 24 hrs by two-fold microdilution method
Staphylococcus aureus [9] = experiment: Antibacterial activity against methicillin-resistant Staphylococcus aureus 110414 clinical isolate after 20 to 24 hrs by two-fold microdilution method
[10] = test system: Staphylococcus haemolyticus; experiment: Antibacterial activity against Staphylococcus haemolyticus CICC 10373 after 20 to 24 hrs by two-fold microdilution method
Staphylococcus aureus [11] = experiment: Antibacterial activity against methicillin-resistant Staphylococcus aureus 1106003 clinical isolate after 20 to 24 hrs by two-fold microdilution method
Staphylococcus aureus [12] = experiment: Antibacterial activity against methicillin-resistant Staphylococcus aureus 11819 clinical isolate after 20 to 24 hrs by two-fold microdilution method
Staphylococcus aureus [13] = experiment: Antibacterial activity against methicillin-resistant Staphylococcus aureus 122045 clinical isolate after 20 to 24 hrs by two-fold microdilution method
Staphylococcus aureus [14] = experiment: Antibacterial activity against methicillin-resistant Staphylococcus aureus 316031 clinical isolate after 20 to 24 hrs by two-fold microdilution method
Staphylococcus aureus [15] = experiment: Antibacterial activity against methicillin-resistant Staphylococcus aureus 216054 clinical isolate after 20 to 24 hrs by two-fold microdilution method
Staphylococcus aureus [16] = experiment: Antibacterial activity against methicillin-resistant Staphylococcus aureus 304243 clinical isolate after 20 to 24 hrs by two-fold microdilution method
Staphylococcus aureus [17] = experiment: Antibacterial activity against methicillin-resistant Staphylococcus aureus 121026 clinical isolate after 20 to 24 hrs by two-fold microdilution method
Staphylococcus aureus [18] = experiment: Antibacterial activity against methicillin-resistant Staphylococcus aureus 118038 clinical isolate after 20 to 24 hrs by two-fold microdilution method
Staphylococcus aureus [19] = experiment: Antibacterial activity against methicillin-resistant Staphylococcus aureus 122820-2 clinical isolate after 20 to 24 hrs by two-fold microdilution method
Staphylococcus aureus [20] = experiment: Antibacterial activity against methicillin-resistant Staphylococcus aureus 221022 clinical isolate after 20 to 24 hrs by two-fold microdilution method
Escherichia coli = experiment: Antibacterial activity against Escherichia coli ATCC 25922 after 20 to 24 hrs by two-fold microdilution method
Staphylococcus aureus [21] = experiment: Antibacterial activity against methicillin-resistant Staphylococcus aureus 523005 clinical isolate after 20 to 24 hrs by two-fold microdilution method
Staphylococcus aureus [22] = experiment: Antibacterial activity against methicillin-resistant Staphylococcus aureus 112047 clinical isolate after 20 to 24 hrs by two-fold microdilution method
Staphylococcus aureus [23] = experiment: Antibacterial activity against methicillin-resistant Staphylococcus aureus 1107027 clinical isolate after 20 to 24 hrs by two-fold microdilution method
Staphylococcus aureus [24] = experiment: Antibacterial activity against methicillin-resistant Staphylococcus aureus 822030 clinical isolate after 20 to 24 hrs by two-fold microdilution method
Staphylococcus aureus [25] = experiment: Antibacterial activity against methicillin-resistant Staphylococcus aureus 519238 clinical isolate after 20 to 24 hrs by two-fold microdilution method
Staphylococcus aureus [26] = experiment: Antibacterial activity against methicillin-resistant Staphylococcus aureus 125025 clinical isolate after 20 to 24 hrs by two-fold microdilution method
Streptococcus pneumoniae = experiment: Antibacterial activity against Streptococcus pneumoniae ATCC 6305 after 20 to 24 hrs by two-fold microdilution method
Staphylococcus aureus [27] = experiment: Antibacterial activity against methicillin-resistant Staphylococcus aureus 614019 clinical isolate after 20 to 24 hrs by two-fold microdilution method
Staphylococcus aureus [28] = experiment: Antibacterial activity against methicillin-resistant Staphylococcus aureus 219236 clinical isolate after 20 to 24 hrs by two-fold microdilution method
Staphylococcus aureus [29] = experiment: Antibacterial activity against methicillin-resistant Staphylococcus aureus 215073 clinical isolate after 20 to 24 hrs by two-fold microdilution method
Staphylococcus aureus [30] = experiment: Antibacterial activity against methicillin-resistant Staphylococcus aureus 110910-2 clinical isolate after 20 to 24 hrs by two-fold microdilution method
Staphylococcus aureus [31] = experiment: Antibacterial activity against methicillin-resistant Staphylococcus aureus 1128040 clinical isolate after 20 to 24 hrs by two-fold microdilution method
Staphylococcus aureus [32] = experiment: Antibacterial activity against methicillin-resistant Staphylococcus aureus 130031 clinical isolate after 20 to 24 hrs by two-fold microdilution method
Staphylococcus aureus [33] = experiment: Antibacterial activity against methicillin-resistant Staphylococcus aureus 1012039 clinical isolate after 20 to 24 hrs by two-fold microdilution method
Staphylococcus aureus [34] = experiment: Antibacterial activity against methicillin-resistant Staphylococcus aureus 3250299 clinical isolate after 20 to 24 hrs by two-fold microdilution method
Staphylococcus aureus [35] = experiment: Antibacterial activity against methicillin-resistant Staphylococcus aureus 10281-2 clinical isolate after 20 to 24 hrs by two-fold microdilution method
Staphylococcus aureus [36] = experiment: Antibacterial activity against methicillin-resistant Staphylococcus aureus 921026 clinical isolate after 20 to 24 hrs by two-fold microdilution method
Staphylococcus aureus [37] = experiment: Antibacterial activity against methicillin-resistant Staphylococcus aureus 1019240 clinical isolate after 20 to 24 hrs by two-fold microdilution method
Staphylococcus aureus [38] = experiment: Antibacterial activity against methicillin-resistant Staphylococcus aureus 519030 clinical isolate after 20 to 24 hrs by two-fold microdilution method
Staphylococcus aureus [39] = experiment: Antibacterial activity against methicillin-resistant Staphylococcus aureus GLH14 clinical isolate after 20 to 24 hrs by two-fold microdilution method
Staphylococcus aureus [40] = experiment: Antibacterial activity against methicillin-resistant Staphylococcus aureus 12308 clinical isolate after 20 to 24 hrs by two-fold microdilution method
Staphylococcus aureus [41] = experiment: Antibacterial activity against methicillin-resistant Staphylococcus aureus 1101016 clinical isolate after 20 to 24 hrs by two-fold microdilution method
Staphylococcus aureus [42] = experiment: Antibacterial activity against methicillin-resistant Staphylococcus aureus 1113041 clinical isolate after 20 to 24 hrs by two-fold microdilution method
Staphylococcus aureus [43] = experiment: Antibacterial activity against methicillin-resistant Staphylococcus aureus 1023043 clinical isolate after 20 to 24 hrs by two-fold microdilution method
Staphylococcus aureus [44] = experiment: Antibacterial activity against methicillin-resistant Staphylococcus aureus 831024 clinical isolate after 20 to 24 hrs by two-fold microdilution method

With `CN1CCN(CCCCCCOC(=O)c2c3c(n4cc(Br)ccc24)C(=O)c2ncccc2C3=O)CC1` the MIC (Staphylococcus aureus [1]) was 0.125 µg/mL (≈ 0.226 µM), the MIC [2] was no more than 0.0078 µg/mL and the MIC (Staphylococcus aureus [3]) was 0.5 µg/mL (≈ 0.903 µM). For the same molecule, the MIC (Staphylococcus aureus [4]) was 0.063 µg/mL (≈ 0.114 µM), the MIC (Staphylococcus aureus [5]) was 0.063 µg/mL (≈ 0.114 µM) and the MIC (Enterococcus faecalis) was 0.25 µg/mL (≈ 0.452 µM). The MIC (Staphylococcus aureus [6]) was 0.125 µg/mL (≈ 0.226 µM), the MIC (Staphylococcus aureus [7]) was 1 µg/mL (≈ 1.81 µM) and the MIC (Staphylococcus aureus [8]) was 0.25 µg/mL (≈ 0.452 µM). It also gave an MIC (Staphylococcus aureus [9]) of 0.125 µg/mL (≈ 0.226 µM), an MIC [10] of 0.063 µg/mL (≈ 0.114 µM) and an MIC (Staphylococcus aureus [11]) greater than 16 µg/mL. For the same molecule, the MIC (Staphylococcus aureus [12]) was 0.063 µg/mL (≈ 0.114 µM), the MIC (Staphylococcus aureus [13]) was 0.063 µg/mL (≈ 0.114 µM) and the MIC (Staphylococcus aureus [14]) was 0.25 µg/mL (≈ 0.452 µM). The MIC (Staphylococcus aureus [15]) was 0.125 µg/mL (≈ 0.226 µM), the MIC (Staphylococcus aureus [16]) was 0.25 µg/mL (≈ 0.452 µM) and the MIC (Staphylococcus aureus [17]) was 0.031 µg/mL (≈ 0.056 µM). It also gave an MIC (Staphylococcus aureus [18]) of 0.25 µg/mL (≈ 0.452 µM), an MIC (Staphylococcus aureus [19]) of 0.063 µg/mL (≈ 0.114 µM) and an MIC (Staphylococcus aureus [20]) of 0.125 µg/mL (≈ 0.226 µM). It also gave an MIC (Escherichia coli) of 4 µg/mL (≈ 7.23 µM), an MIC (Staphylococcus aureus [21]) of 0.25 µg/mL (≈ 0.452 µM) and an MIC (Staphylococcus aureus [22]) of 0.25 µg/mL (≈ 0.452 µM). For the same molecule, the MIC (Staphylococcus aureus [23]) was 0.25 µg/mL (≈ 0.452 µM), the MIC (Staphylococcus aureus [24]) was 0.25 µg/mL (≈ 0.452 µM) and the MIC (Staphylococcus aureus [25]) was 0.25 µg/mL (≈ 0.452 µM). It also gave an MIC (Staphylococcus aureus [26]) of no more than 0.0078 µg/mL, an MIC (Streptococcus pneumoniae) of 0.5 µg/mL (≈ 0.903 µM) and an MIC (Staphylococcus aureus [27]) of 0.125 µg/mL (≈ 0.226 µM). It also gave an MIC (Staphylococcus aureus [28]) of 0.063 µg/mL (≈ 0.114 µM), an MIC (Staphylococcus aureus [29]) of 0.063 µg/mL (≈ 0.114 µM) and an MIC (Staphylococcus aureus [30]) of 0.125 µg/mL (≈ 0.226 µM). The MIC (Staphylococcus aureus [31]) was 0.063 µg/mL (≈ 0.114 µM), the MIC (Staphylococcus aureus [32]) was 0.25 µg/mL (≈ 0.452 µM) and the MIC (Staphylococcus aureus [33]) was 0.125 µg/mL (≈ 0.226 µM). The MIC (Staphylococcus aureus [34]) was 0.063 µg/mL (≈ 0.114 µM), the MIC (Staphylococcus aureus [35]) was no more than 0.0078 µg/mL and the MIC (Staphylococcus aureus [36]) was no more than 0.0078 µg/mL. It also gave an MIC (Staphylococcus aureus [37]) of 0.25 µg/mL (≈ 0.452 µM), an MIC (Staphylococcus aureus [38]) of 0.5 µg/mL (≈ 0.903 µM) and an MIC (Staphylococcus aureus [39]) of 0.063 µg/mL (≈ 0.114 µM). It also gave an MIC (Staphylococcus aureus [40]) of 0.063 µg/mL (≈ 0.114 µM), an MIC (Staphylococcus aureus [41]) of 0.25 µg/mL (≈ 0.452 µM) and an MIC (Staphylococcus aureus [42]) of 0.125 µg/mL (≈ 0.226 µM). For the same molecule, the MIC (Staphylococcus aureus [43]) was 0.125 µg/mL (≈ 0.226 µM) and the MIC (Staphylococcus aureus [44]) was no more than 0.0078 µg/mL.
